Results from paper PMC2911226, “Structural and Biochemical Characterization of the Human Cyclophilin Family of Peptidyl-Prolyl Isomerases” (PLoS Biology, 2010).

Experiments:
PPIL1 = target: T1, PPIL1 (Homo sapiens, UniProt Q9Y3C6); test: Thermal stabilization assay (StarGazer static light scattering); assay type: binding; details: protein approximately 20 µM, compound 50 µM; shift vs basal Tagg
T1 construct: His6 (thrombin cleavage site) (N); made in house; host or cells: E. coli BL21 Gold DE3
T1 sequence (Q9Y3C6 10-164 limits assumed): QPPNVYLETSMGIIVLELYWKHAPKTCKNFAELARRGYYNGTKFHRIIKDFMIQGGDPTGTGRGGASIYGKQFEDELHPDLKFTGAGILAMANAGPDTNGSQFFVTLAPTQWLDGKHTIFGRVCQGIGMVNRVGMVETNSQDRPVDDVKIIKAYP
Excerpt: (§1) In order to elucidate the function of residues in the extended active site of the PPIase domain of the human cyclophilins, we probed the binding and catalytic function of these domains against either substrate or small-molecule inhibitors (see Figure 1 and Datapack S1 for graphical and tabular depictions of the active site). Three assays were utilized to explore these functions. […] This assay has been shown in several studies to be a reliable readout of small molecule binding for kinase and other enzyme families,[38]. […] Because of the inherent thermal stability characteristics of PPID and RanBP2, this technique was unable to distinguish between apo and cyclosporin-bound forms of those domains.
(§2) All protein samples used for static light scattering (StarGazer) trials were assessed for purity utilizing SDS-PAGE and verified for mass accuracy using mass spectrometry. Methods were generally as described as in [38]; protein at approximately 20 µM concentration was heated from room temperature to 80°C in the presence or absence of small molecules, including cyclosporins A, C, D, or H (LKT Labs, MN, USA). The […] were originally prepared in 100% DMSO at 50–100 mM concentration, then diluted to 50 µM for screening, thereby ensuring the final DMSO concentration was less than 5% during the experiment. […] Each compound was tested at least twice.

PPIH = target: T2, PPIH (Homo sapiens, UniProt O43447); test: as above; assay type: binding; details: protein approximately 20 µM, compound 50 µM; shift vs basal Tagg
T2 construct: His6 (thrombin cleavage site) (N); made in house; host or cells: E. coli BL21 Gold DE3
Excerpt: as §1, §2

PPIA = target: T3, PPIA (Homo sapiens, UniProt P62937); test: as above; assay type: binding; details: protein approximately 20 µM, compound 50 µM; shift vs basal Tagg
T3 construct: His6 (thrombin cleavage site) (N); made in house; host or cells: E. coli BL21 Gold DE3
Excerpt: as §1, §2

PPIE = target: T4, PPIE (Homo sapiens, UniProt Q9UNP9); test: as above; assay type: binding; details: protein approximately 20 µM, compound 50 µM; shift vs basal Tagg
T4 construct: His6 (thrombin cleavage site) (N); made in house; host or cells: E. coli BL21 Gold DE3
Excerpt: as §1, §2

PPIB = target: T5, PPIB (Homo sapiens, UniProt P23284); test: as above; assay type: binding; details: protein approximately 20 µM, compound 50 µM; shift vs basal Tagg
T5 construct: His6 (thrombin cleavage site) (N); made in house; host or cells: E. coli BL21 Gold DE3
Excerpt: as §1, §2

PPIF = target: T6, PPIF (Homo sapiens, UniProt P30405); test: as above; assay type: binding; details: protein approximately 20 µM, compound 50 µM; shift vs basal Tagg
T6 construct: His6 (thrombin cleavage site) (N); made in house; host or cells: E. coli BL21 Gold DE3
Excerpt: as §1, §2

PPIC = target: T7, PPIC (Homo sapiens, UniProt P45877); test: as above; assay type: binding; details: protein approximately 20 µM, compound 50 µM; shift vs basal Tagg
T7 construct: His6 (thrombin cleavage site) (N); made in house; host or cells: E. coli BL21 Gold DE3
Excerpt: as §1, §2

PPIG [1] = target: T8, PPIG (Homo sapiens, UniProt Q13427); test: as above; assay type: binding; details: protein approximately 20 µM, compound 50 µM; shift vs basal Tagg
T8 construct: His6 (thrombin cleavage site) (N); made in house; host or cells: E. coli BL21 Gold DE3 (general method; the K125A/E126A crystallization mutant was grown in BL21 DE3 Codon Plus RIL)
Excerpt: as §1, §2

NKTR = target: T9, NKTR (Homo sapiens, UniProt P30414); test: as above; assay type: binding; details: protein approximately 20 µM, compound 50 µM; shift vs basal Tagg
T9 construct: His6 with thrombin cleavage site (N); made in house; host or cells: E. coli BL21 Gold DE3
T9 sequence (P30414 10-175 limits assumed): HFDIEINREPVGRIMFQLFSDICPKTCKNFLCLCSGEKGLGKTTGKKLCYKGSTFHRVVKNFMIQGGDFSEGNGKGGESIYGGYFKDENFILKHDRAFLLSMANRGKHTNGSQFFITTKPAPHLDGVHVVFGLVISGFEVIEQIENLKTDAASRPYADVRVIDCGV
Excerpt: as §1, §2

PPWD1 = target: T10, PPWD1 (Homo sapiens, UniProt Q96BP3); test: as above; assay type: binding; details: protein approximately 20 µM, compound 50 µM; shift vs basal Tagg
T10 construct: His6 with thrombin cleavage site (N); made in house; host or cells: E. coli BL21 Gold DE3
T10 sequence (Q96BP3 490-645 limits assumed): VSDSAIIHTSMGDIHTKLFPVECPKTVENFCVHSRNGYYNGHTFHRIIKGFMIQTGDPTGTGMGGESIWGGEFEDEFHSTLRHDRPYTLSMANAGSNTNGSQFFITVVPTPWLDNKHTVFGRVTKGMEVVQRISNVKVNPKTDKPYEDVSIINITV
Excerpt: as §1, §2

SDCCAG-10 = target: T11, SDCCAG-10 (Homo sapiens, UniProt Q6UX04); test: NMR-based tetrapeptide activity assay (1H/1H TOCSY); assay type: biochemical
T11 construct: His6 with thrombin cleavage site (N); made in house; host or cells: E. coli BL21 Gold DE3
T11 sequence (Q6UX04 11-166 limits assumed): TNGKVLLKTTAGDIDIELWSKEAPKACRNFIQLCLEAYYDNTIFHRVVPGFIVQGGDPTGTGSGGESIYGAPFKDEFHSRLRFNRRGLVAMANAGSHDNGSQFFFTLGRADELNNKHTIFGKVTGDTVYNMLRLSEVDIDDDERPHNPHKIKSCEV
Excerpt: (§3) A two-dimensional NMR experiment (1H/1H TOCSY) described previously,[40], the only in vitro protease-free method available to probe for both substrate binding and catalytic activity of cyclophilins, was used to assess the commercially available tetrapeptides of sequence AAPF, AFPF, and AGPF [34]. […] A number of articles have documented the drawbacks of the protease-coupled assay,[42]–[44], an obvious example being that the addition of protease to the reaction mixture in the chymotrypsin-coupled assay requires additional testing to ensure that the enzymes and substrates being screened are not proteolytic targets. […] We detected binding and turnover for at least one of the tetrapeptide substrates tested for PPIA, PPIB, PPIC, PPID, PPIE, PPIF, PPIG, PPIH, PPIL1, PPWD1, and NKTR (Table 1; see Figure S1 for representative data showing binding and activity). This correlated well with previously determined activities,[20],[21],[28],[30],[45],[46], and established activity measurements for PPIF, PPIG, and NKTR.
(§4) Most protein samples aimed at assessing binding and/or catalysis of tetrapeptide substrates were diluted to 500 µL with 10% D2O and placed into a Shigemi microcell (Allison Park, PA, USA). Typical samples contained 0.075 mM protein and 2 mM of suc-AAPF-pNA, suc-AFPF-pNA, or suc-AGPF-pNA (Bachem), along with 100 mM phosphate buffer pH 7 and 100 mM NaCl. Spectra were collected at 25°C on a Varian 600 or 900 MHz spectrometer (Palo Alto, CA, USA). Spectra were acquired using standard Varian BioPack sequences, processed using NMRpipe software and visualized using CCPN software. For samples used to assess binding of PPIA to peptides DEGPF, DFGPF, DYGPF, YGGPF, or VRGPF, samples were as above except protein concentration was 0.3 mM and spectra were collected at 10°C.

PPIG [2] = target: T8, PPIG; test: as above; assay type: biochemical; details: collapse of substrate cis/trans peaks; at least one of suc-AAPF-pNA, suc-AFPF-pNA, suc-AGPF-pNA; 25°C
Excerpt: as §3, §4

PPIL2 = target: T12, PPIL2 (Homo sapiens, UniProt Q13356); test: as above; assay type: biochemical
T12 construct: His6 with thrombin cleavage site (N); made in house; host or cells: E. coli BL21 Gold DE3
T12 sequence (Q13356 278-433 limits assumed): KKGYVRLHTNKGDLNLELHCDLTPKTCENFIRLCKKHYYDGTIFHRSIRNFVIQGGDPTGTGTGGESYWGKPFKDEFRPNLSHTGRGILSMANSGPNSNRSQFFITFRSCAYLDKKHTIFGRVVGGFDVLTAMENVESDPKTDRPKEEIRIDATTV
Excerpt: as §3, §4

PPID = target: T13, PPID (Homo sapiens, UniProt Q08752); test: as above; assay type: biochemical; details: collapse of substrate cis/trans peaks; at least one of suc-AAPF-pNA, suc-AFPF-pNA, suc-AGPF-pNA; 25°C
T13 construct: His6 (thrombin cleavage site) (N); made in house; host or cells: E. coli BL21 Gold DE3
Excerpt: as §3, §4

[3] = collapse of substrate cis/trans peaks, suc-AAPF-pNA, suc-AFPF-pNA, suc-AGPF-pNA, 25°C

T8 sequence (Q13427 11-176 limits assumed): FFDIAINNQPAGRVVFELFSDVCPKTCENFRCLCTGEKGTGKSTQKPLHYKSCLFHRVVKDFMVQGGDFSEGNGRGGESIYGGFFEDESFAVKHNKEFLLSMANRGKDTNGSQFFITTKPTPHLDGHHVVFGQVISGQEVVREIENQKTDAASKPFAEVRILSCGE
T7 sequence (P45877 41-198 limits assumed): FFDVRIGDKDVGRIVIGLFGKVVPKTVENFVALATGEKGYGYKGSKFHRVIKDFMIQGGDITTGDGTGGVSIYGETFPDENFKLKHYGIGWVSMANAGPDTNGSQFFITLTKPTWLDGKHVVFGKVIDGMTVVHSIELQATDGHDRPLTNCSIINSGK
T4 sequence (Q9UNP9 143-299 limits assumed): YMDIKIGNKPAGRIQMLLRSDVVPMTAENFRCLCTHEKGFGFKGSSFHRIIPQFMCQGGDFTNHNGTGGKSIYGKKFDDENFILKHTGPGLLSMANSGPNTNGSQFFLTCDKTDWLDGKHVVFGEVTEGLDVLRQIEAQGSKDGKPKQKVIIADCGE
T3 sequence (P62937 7-163 limits assumed): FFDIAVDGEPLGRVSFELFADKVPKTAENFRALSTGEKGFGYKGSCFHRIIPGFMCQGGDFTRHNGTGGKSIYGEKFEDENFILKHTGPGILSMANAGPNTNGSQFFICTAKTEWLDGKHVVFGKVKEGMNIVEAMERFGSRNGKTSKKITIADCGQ
T2 sequence (O43447 14-176 limits assumed): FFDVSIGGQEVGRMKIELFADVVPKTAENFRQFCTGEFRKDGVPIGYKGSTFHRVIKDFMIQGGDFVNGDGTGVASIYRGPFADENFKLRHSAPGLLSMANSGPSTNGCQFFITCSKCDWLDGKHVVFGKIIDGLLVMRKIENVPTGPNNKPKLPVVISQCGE
T13 sequence (Q08752 19-183 limits assumed): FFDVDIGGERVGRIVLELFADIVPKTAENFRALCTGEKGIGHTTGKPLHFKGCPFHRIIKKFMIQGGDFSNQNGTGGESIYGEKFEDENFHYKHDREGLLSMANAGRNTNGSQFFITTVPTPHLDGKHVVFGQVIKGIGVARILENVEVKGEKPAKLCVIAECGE
T5 sequence (P23284 47-204 limits assumed): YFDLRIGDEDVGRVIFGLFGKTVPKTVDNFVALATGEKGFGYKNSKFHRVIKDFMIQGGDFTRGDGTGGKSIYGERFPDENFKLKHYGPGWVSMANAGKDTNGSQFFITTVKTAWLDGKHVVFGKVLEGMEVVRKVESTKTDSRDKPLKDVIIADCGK
T6 sequence (P30405 49-205 limits assumed): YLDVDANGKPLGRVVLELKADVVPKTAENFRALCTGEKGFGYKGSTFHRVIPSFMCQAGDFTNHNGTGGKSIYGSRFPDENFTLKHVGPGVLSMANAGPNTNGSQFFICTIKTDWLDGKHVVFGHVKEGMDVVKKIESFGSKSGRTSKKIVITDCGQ

Compound	Thermal Stability ΔTagg, CsC (PPIL1) [°C]	Thermal Stability ΔTagg, CsC (PPIH) [°C]	Thermal Stability ΔTagg, CsC (PPIA) [°C]	Thermal Stability ΔTagg, CsC (PPIE) [°C]	Thermal Stability ΔTagg, CsC (PPIB) [°C]	Thermal Stability ΔTagg, CsC (PPIF) [°C]	Thermal Stability ΔTagg, CsC (PPIC) [°C]	Thermal Stability ΔTagg, CsC (PPIG [1]) [°C]	Thermal Stability ΔTagg, CsC (NKTR) [°C]	Thermal Stability ΔTagg, CsC (PPWD1) [°C]	Binding of substrate (peak centers shift without coalescence) (SDCCAG-10; Figure S1A)	Tetrapeptide Activity (SDCCAG-10; [3])	Tetrapeptide Activity (PPIG [2])	Binding of substrate (peak centers shift without coalescence) (PPIL2; Figure S1A)	Tetrapeptide Activity (PPIL2; [3])	Tetrapeptide Activity (PPID)
C/C=C/C[C@@H](C)[C@@H](O)[C@H]1C(=O)N[C@@H]([C@@H](C)O)C(=O)N(C)CC(=O)N(C)[C@@H](CC(C)C)C(=O)N[C@@H](C(C)C)C(=O)N(C)[C@@H](CC(C)C)C(=O)N[C@@H](C)C(=O)N[C@H](C)C(=O)N(C)[C@@H](CC(C)C)C(=O)N(C)[C@@H](CC(C)C)C(=O)N(C)[C@@H](C(C)C)C(=O)N1C [CsC, cyclosporin C]	1.7	7.3	1.9	6.8	3.4	10.7	7.0	2	3.0	5.2						
suc-AGPF-pNA											binding, but not catalysis	not active	active isomerases	binding, but not catalysis	not active	active isomerases
